Results as given in patent publication US20070048215A1, “Chemical compound and assay” (priority 2003, published 2007).

Key:
[1] = target: T1, membranes from hERG-transfected HEK cells (hERG channel) (Homo sapiens, UniProt Q12809); test: Binding of the radioligand to membranes from hERG-transfected HEK cells (Kd, Bmax); details: mean±SEM, n=3
T1 construct: expressed in transfected cells; host or cells: HEK (human embryonic kidney) cells, membrane preparation
Method: The batch of radiolabel used in these studies has a specific activity of 2941.5 GBq/mmol (79.5 Ci/mmol) and a concentration of 20 μM. The stock radiolabel is diluted 2000-fold to 10 nM and 20 μL added per well to a final assay volume of 200 μL to give a final radioligand concentration of 1 nM.

[2] = target: T2, hERG-transfected HEK membranes (hERG channel) (Homo sapiens, UniProt Q12809); details: published data of Finlayson et al.; cited from earlier work
[3] = target: T2, hERG-transfected HEK membranes (hERG channel)
Method: Protocol for HERG Binding Assay
(§1) 96-well polypropylene plates (Costar C3600)
GF/B Plate Coating Solution
0.3% (v/v) Polyethylenimine
(§2) GF/B filter plates are pre-soaked in coating solution for a minimum of 20 minutes before harvesting.
(§3) Membranes for use in the assay are prepared as follows:
(§4) The final pellet is prepared in serum-free medium and the packed cell volume (pcv) measured.
(§5) The cells are allowed to swell for a couple of minutes on ice then lysed using a Polytron tissue homogeniser set to 22,000 rpm. The cell suspension is held on ice and the Polytron is allowed to build up to speed, then turned off and allowed to cool for 30 seconds before repeating. Normally 3 bursts should be sufficient to completely lyse the cells. A sample is checked microscopically to ensure complete lysis and the process repeated if necessary.
(§6) The lysed membrane solution is carefully overlaid over the 41% cushion. Any debris that may be stuck to the sides is washed out of the Polytron tube with buffer. The ultra centrifuge tube is topped up with cold buffer to completely fill the tube (this prevents the tube from collapsing during centrifugation). Centrifugation is carried out at 28,000 rpm for 1 hour @ 4° C. using a SW-28 swing-out rotor with a brake to 800 rpm.
(§7) Membranes are seen as a white band at sucrose/buffer interphase. The top layer of the buffer is discarded and then all the membrane band is harvested with as little sucrose as possible and added to a fresh centrifuge tube. This is diluted and mixed well with at least 3 volumes of ice cold buffer containing protease inhibitor. Centrifugation is carried out at 23,000 rpm at 4° C. for 20 minutes with a break to zero.
(§8) The supernatant is discarded and the pellet resuspended in the assay buffer+protease inhibitors on ice at 1×10^8 cell equivalents/ml. This preparation is then aliquotted and frozen to −80° C. or lower. […]
(§9) 20 μL of 10 nM 3,7-Bis[2-(4-nitro[3,5-^3H]phenyl)ethyl]-3,7-diazabicyclo[3.3.1]nonane is added to a dry filter plate to determine the total radioactivity added to assay wells.

[4] = system: cardiac rapidly activating delayed rectifier K^+ current; details: source of data: Chadwick 1993; G.Pig; cited from earlier work
[5] = target: T2, hERG-transfected HEK membranes (hERG channel); test: biochemical
Method: Protocol for HERG Binding Assay
as §1
GF/B Plate Coating Solution
0.3% (v/v) Polyethylenimine
as §2, §3, §4, §5, §6, §7, §8, §9

T2 sequence (Q12809 whole entry): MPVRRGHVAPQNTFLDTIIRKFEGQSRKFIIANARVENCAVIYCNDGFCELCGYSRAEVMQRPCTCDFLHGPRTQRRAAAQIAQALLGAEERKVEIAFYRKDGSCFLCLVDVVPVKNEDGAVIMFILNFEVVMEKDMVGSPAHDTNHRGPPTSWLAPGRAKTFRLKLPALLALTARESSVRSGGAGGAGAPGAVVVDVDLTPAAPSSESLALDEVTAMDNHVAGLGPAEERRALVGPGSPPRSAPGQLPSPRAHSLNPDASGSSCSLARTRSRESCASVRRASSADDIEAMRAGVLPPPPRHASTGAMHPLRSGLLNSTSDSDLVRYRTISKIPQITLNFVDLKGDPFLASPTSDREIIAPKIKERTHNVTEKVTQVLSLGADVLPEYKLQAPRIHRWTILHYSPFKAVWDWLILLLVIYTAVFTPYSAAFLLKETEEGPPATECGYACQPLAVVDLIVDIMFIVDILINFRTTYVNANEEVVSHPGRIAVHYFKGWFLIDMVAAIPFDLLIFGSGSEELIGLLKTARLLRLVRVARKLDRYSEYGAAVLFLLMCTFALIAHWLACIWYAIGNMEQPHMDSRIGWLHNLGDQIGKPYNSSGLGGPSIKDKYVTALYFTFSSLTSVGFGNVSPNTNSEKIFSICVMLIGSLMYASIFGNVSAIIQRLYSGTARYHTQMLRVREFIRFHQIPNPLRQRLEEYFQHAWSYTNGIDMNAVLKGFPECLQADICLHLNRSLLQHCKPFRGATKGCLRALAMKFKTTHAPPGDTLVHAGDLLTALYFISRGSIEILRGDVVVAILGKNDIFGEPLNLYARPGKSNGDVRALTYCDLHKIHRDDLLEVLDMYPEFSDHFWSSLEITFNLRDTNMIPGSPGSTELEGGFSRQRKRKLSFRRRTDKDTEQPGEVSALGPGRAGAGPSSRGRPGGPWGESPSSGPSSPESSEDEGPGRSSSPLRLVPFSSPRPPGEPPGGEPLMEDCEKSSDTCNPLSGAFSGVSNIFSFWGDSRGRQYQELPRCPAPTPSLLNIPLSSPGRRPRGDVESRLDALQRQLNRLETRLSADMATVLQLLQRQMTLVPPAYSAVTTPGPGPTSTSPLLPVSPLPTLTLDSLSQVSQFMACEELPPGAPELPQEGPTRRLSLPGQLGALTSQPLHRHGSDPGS
T1 sequence (Q12809 whole entry): as above

SMILES: [3H]c1cc(CCN2CC3CC(C2)CN(CCc2cc([3H])c([N+](=O)[O-])c([3H])c2)C3)cc([3H])c1[N+](=O)[O-] [3,7-Bis[2-(4-nitro[3,5-^3H]phenyl)ethyl]-3,7-diazabicyclo[3.3.1]nonane]
- Bmax [1]: 23.1±0.4 pmol/mg protein

SMILES: O=[N+]([O-])c1ccc(CCN2CC3CC(C2)CN(CCc2ccc([N+](=O)[O-])cc2)C3)cc1 [3,7-Bis[2-(4-nitro[3,5-^3H]phenyl)ethyl]-3,7-diazabicyclo[3.3.1]nonane]
- Kd [1]: 0.91 ± 0.01 nM

SMILES: CC(C)NC[C@@H](O)c1ccc(NS(C)(=O)=O)cc1 [d-Sotalol]
- pIC50, [^3H]-Dofetlide competition binding [2]: 3.9
- pIC50, 3,7-Bis[2-(4-nitro[3,5-^3H]phenyl)ethyl]-3,7-diazabicyclo[3.3.1]nonane competition binding [3]: 4.6
- Electrophysiology pIC50 [4]: 4.1

SMILES: O=[N+]([O-])c1ccc(CCN2CC3CC(C2)CN(CCc2ccc([N+](=O)[O-])cc2)C3)cc1 [3,7-Bis[2-(4-nitrophenyl)ethyl]-3,7-diazabicyclo[3.3.1]nonane]
- IC50 [5]: 3.16 nM
